Like-named read-outs stand apart in the source and are kept apart here. Residues, ends and D or L forms follow the SMILES beside them.
Experiments:
[1] = target: Angiotensin converting enzyme (ACE) (Homo sapiens, UniProt P12821); experiment: biochemical
[2] = tested on: spontaneously hypertensive rats (SHR); conditions: oral, dose not given, 4 h after administration, tail-cuff, n = 6
SHR = conditions: cited from earlier work
ACE = conditions: read-out: IC50 (ACE inhibition), cited from earlier work
[3] = tested on: Ehrlich ascites sarcoma cells; conditions: Ehrlich ascites sarcoma cells in mice; cited from earlier work
Description: Adlay seed (soft-shelled Job’s tears, Coix larchryma-jobi L. var. ma-yuen Stapf) has been used in traditional Chinese medicine and has been a nourishing food for more than a thousand years. It has been used to treat warts, chapped skin, rheumatism, neuralgia, hypertension as well as being an anti-inflammatory and anticancer agent. An increasing effort had been concentrated on finding active components from adlay. […] The main ingredient of ...

[4] = from haruan myofibrillar protein hydrolysate (proteinase K and thermolysin)

Chain of Angiotensin converting enzyme (ACE) (P12821 30-1306, species assumed): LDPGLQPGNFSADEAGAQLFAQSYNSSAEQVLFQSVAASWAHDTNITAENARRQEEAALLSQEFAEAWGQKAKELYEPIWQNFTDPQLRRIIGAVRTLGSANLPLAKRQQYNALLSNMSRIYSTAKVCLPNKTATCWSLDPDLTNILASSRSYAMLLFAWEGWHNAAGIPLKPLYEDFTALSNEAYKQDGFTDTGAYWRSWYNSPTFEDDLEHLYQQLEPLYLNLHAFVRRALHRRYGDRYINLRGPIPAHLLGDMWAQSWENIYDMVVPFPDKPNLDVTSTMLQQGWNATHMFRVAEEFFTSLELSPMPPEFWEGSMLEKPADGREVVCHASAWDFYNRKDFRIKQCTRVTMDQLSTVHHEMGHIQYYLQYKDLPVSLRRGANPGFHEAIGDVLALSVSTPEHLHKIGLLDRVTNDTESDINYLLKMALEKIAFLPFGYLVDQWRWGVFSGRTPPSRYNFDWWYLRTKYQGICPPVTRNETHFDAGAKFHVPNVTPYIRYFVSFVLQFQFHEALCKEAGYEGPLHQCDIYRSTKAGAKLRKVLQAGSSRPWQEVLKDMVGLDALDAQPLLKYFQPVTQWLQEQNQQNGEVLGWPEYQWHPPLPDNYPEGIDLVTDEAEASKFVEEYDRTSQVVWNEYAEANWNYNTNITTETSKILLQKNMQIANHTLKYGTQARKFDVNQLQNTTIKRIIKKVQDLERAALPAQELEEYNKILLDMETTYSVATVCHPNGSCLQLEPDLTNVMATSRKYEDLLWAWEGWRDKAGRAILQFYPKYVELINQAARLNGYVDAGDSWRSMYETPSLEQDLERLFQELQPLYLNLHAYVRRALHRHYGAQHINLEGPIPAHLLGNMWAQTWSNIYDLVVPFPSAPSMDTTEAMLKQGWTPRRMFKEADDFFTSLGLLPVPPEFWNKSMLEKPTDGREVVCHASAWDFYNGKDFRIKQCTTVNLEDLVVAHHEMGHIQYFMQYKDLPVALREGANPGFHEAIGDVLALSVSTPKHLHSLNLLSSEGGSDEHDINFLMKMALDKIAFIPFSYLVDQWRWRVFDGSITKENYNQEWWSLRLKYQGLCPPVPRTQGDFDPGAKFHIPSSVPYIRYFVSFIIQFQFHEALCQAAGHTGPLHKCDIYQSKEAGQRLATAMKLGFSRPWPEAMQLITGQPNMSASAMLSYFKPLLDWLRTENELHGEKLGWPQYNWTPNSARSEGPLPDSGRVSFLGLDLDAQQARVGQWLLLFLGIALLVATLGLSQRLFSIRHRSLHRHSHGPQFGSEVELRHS

C[C@H](NC(=O)CN)C(=O)N[C@@H](C)C(=O)NCC(=O)NCC(=O)N[C@@H](C)C(=O)N[C@@H](Cc1ccccc1)C(=O)O [GAAGGAF] (H-GAAGGAF-OH)
IC50 [1]: 14.2 µM

C[C@H](CS)C(=O)N1CCC[C@H]1C(=O)O [captopril]
Maximal decrease of SBP, positive control [2]: approximately 28.17 mmHg

AAATP
Decrease of SBP (SHR; SHRs, after 8 h administration, from Spanish dry-cured ham): around 25.62 mmHg

AWLHPGAPKVF
Antihypertensive duration (SHR; single oral, 10 mg/kg): 8 h
Reduction of SBP (SHR; single oral, 10 mg/kg, from P. esculenta protein hydrolysate): around 30 mmHg

Ala-Tyr
IC50 (ACE; from corn gluten meal): 14.2 µM

NGTWFEPP
IC50 (ACE; [4]): 0.63 µM

VPAAPPK
IC50 (ACE; [4]): 0.45 µM

coixenolide [coixenolide (I)]
Growth-inhibiting activity [3]: growth-inhibiting activity
